Converted amounts (≈) assume the structure as drawn. Where two headings read alike, the source gives them in different places.

One may read the solubility as the concentration that dissolves in the medium under given conditions. A word on the Papp A→B: it is the apparent permeability from the apical to the basolateral side of a cell layer.

A short description of data set [1]: Solubility in 0.1 N HCl, PBS buffer, FaSSIF and FeSSIF. Type of data set: physicochemical. Particulars: thermodynamic from solid. Summed up:
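Excess compound was shaken for 10 min at ambient temperature in 0.1 N HCl (pH 1), PBS (pH 7.4), FaSSIF (pH 6.5) or FeSSIF (pH 5.0). After centrifugation, the dissolved concentration was measured by reversed-phase HPLC with UV detection at 220 nm.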

Data set [2] is described as follows: Permeability in Caco-2 cells, apical to basolateral. Type of data set: in vitro ADME. The conditions noted are these: human; 21d Caco-2 monolayer, apical pH 6.5 to basolateral pH 7.4, 60 minutes. Set-up: dose or concentration left out as unconfirmed. Summed up:
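21-day Caco-2 monolayers dosed apically at 20 mM nominal test item concentration, apical pH 6.5, basolateral pH 7.4. Basolateral receiver sampled after 60 min and quantified by HPLC or LC-MS/MS; ³H-propranolol and ³H-mannitol controls sampled at 120 min and measured by scintillation.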
Background: Passage across Caco-2 layers is used to estimate intestinal permeability.

A short description of the next data set: Plasma stability ex vivo. Type of data set: in vitro ADME. Particulars: human plasma, 37° C., read-out: t1/2 plasma. Here is the method: Plasma stability is determined in human and rat plasma ex vivo. For the determination of the plasma stability of the compounds of formula I, the test compounds were incubated with human plasma (c=5 μg/mL) at 37° C. for certain time intervals up to 60, resp. 120 min (depending on the compound). Afterwards the incubations were stopped by equivalent addition of acetonitrile for protein precipitation, and the samples were mixed and centrifuged. The supernatants were adequately diluted and analyzed by HPLC with UV detection at 305 nm.
The degradation of the compounds of formula I as well as the formation of the active drug entacapone were monitored, and the half-life times of the compounds of formula I were calculated from the obtained peak areas.

Data set [3] is described as follows: Stability in TPGS/PG over 22 h. The class given is physicochemical. The conditions noted are these: for Amount of compound: TPGS/PG, ambient temperature; for Amount of entacapone: entacapone formed in TPGS/PG. The procedure:
The stability of selected compounds of formula I in TPGS/PG over 22 h is tested by the following procedure: […]
37.5 mg of compounds 15, 35 and 57, respectively […] of compound 63, are in each case added to 25 mL of TPGS/PG (25% by weight of TPGS, 75% by weight of PG) (concentration of compounds 15, 35, 57:1.5 mg/mL; concentration of compound 63:1.4 mg/mL). Each formulation obtained is stirred for 22 h at ambient temperature. The amount of the respective compound of formula I and the amount of entacapone are determined after 5 h, 8 h, 11 h, and 22 h by HPLC assay. Reversed phase gradient HPLC method, column YMC Pro C8, 50 mm×4.0 mm, 3 μm, Eluent A: Water:trifluoroacetic acid (100:0.5 (v/v)), Eluent B: Acetonitrile:trifluoroacetic acid (100:0.5 (v/v)). Column temperature 30° C., Flow rate 3.0 mL/min, Detection wavelength: 220 nm

Data set [4] can be described thus: Pharmacokinetic profile of compound 15 in Labrasol, TPGS/PG or phosphate buffer in rats. Type of data set: in vivo, Male Sprague-Dawley rats. Particulars: oral 10 mg/kg entacapone equivalents, FIG. 1. Here is the method: The pharmacokinetics of compound 15 in rats following oral administration is tested as described in Table 15 below.
The results are summarized in FIG. 1 (The symbols in FIG. 1 have the following meanings: c (ng/mL) concentration in ng/mL, t (min) time in minutes). […] Entacapone concentration is shown in ng/mL, and time is shown in minutes.

Setting [5] is: FaSSIF, pH 6.5, fassif, Table 11, read-out: Solubility FaSSIF pH 6.5.
The mark [6] stands for this setting: FaSSIF, pH 6.5, fassif, fasting state fluid, ambient temperature, read-out: Solubility FaSSIF Ph 6.5.
Setting [7] is: FeSSIF, pH 5, fessif, Table 11, read-out: Solubility FeSSIF pH 5.0.
Where [8] appears, read: FeSSIF, pH 5, fessif, fed state fluid, ambient temperature, read-out: Solubility FeSSIF Ph 5.0.
The mark [9] stands for this setting: PBS buffer, pH 7.4, aqueous buffer, Table 11, read-out: Solubility PBS pH 7.4.
The mark [10] stands for this setting: PBS buffer, pH 7.4, aqueous buffer, ambient temperature, read-out: Solubility PBS Ph 7.4.
[11] abbreviates: 5 h, start 1.5 mg/mL (compound 63: 1.4 mg/mL).

With `CCN(CC)C(=O)/C(C#N)=C/c1cc(OC(=O)OCC2CCCCC2)c(O)c([N+](=O)[O-])c1` [Compound 57, Carbonic acid 5-((E)-2-cyano-2-diethylcarbamoyl-vinyl)-2-hydroxy-3-nitro-phenyl ester cyclohexylmethyl ester], the solubility at 10 min in data set [1] (setting [5]) turned out to be 140 µg/mL (≈ 314 µM); in data set [1] (setting [6]), 140 µg/mL (≈ 314 µM); in data set [1] (setting [7]) it was 30 µg/mL (≈ 67.3 µM); in data set [1] (setting [8]), 30 µg/mL (≈ 67.3 µM); in data set [1] (setting [9]), 260 µg/mL (≈ 584 µM); in data set [1] (setting [10]) it was 260 µg/mL (≈ 584 µM). Also, the Papp A→B at 60 min in data set [2] came out at 55 ×10⁻⁶ cm/s. Also, in “Plasma stability ex vivo”, the half-life at 5 μg/mL came out at 0.302 h. Further, the Amount of compound in data set [3] (setting [11]) is given as 1.37 mg/mL; in data set [3] (8 h) it was 1.39 mg/mL; in data set [3] (11 h) it was 1.35 mg/mL; in data set [3] (22 h), 1.31 mg/mL. The Amount of entacapone in data set [3] (5 h) amounted to 0.03 mg/mL; in data set [3] (8 h), 0.04 mg/mL; in data set [3] (11 h), 0.05 mg/mL; in data set [3] (22 h), 0.08 mg/mL.
As for `CCCCC(CC)COC(=O)Oc1cc(/C=C(\C#N)C(=O)N(CC)CC)cc([N+](=O)[O-])c1O` (centres unmarked) [Compound 15, Carbonic acid 5-((E)-2-cyano-2-diethylcarbamoyl-vinyl)-2-hydroxy-3-nitro-phenyl ester 2-ethyl-hexyl ester], the solubility at 10 min in data set [1] (setting [5]) came to 180 µg/mL (≈ 390 µM); in data set [1] (setting [6]) it was 180 µg/mL (≈ 390 µM); in data set [1] (setting [7]), 190 µg/mL (≈ 412 µM); in data set [1] (setting [8]) it was 190 µg/mL (≈ 412 µM); in data set [1] (setting [9]), 150 µg/mL (≈ 325 µM); in data set [1] (setting [10]) it was 150 µg/mL (≈ 325 µM). In addition, the half-life at 5 μg/mL in the data set “Plasma stability ex vivo” is 1.48 h. In addition, the Amount of compound in data set [3] (setting [11]) is recorded as 1.23 mg/mL; in data set [3] (8 h), 1.23 mg/mL; in data set [3] (11 h) it was 1.16 mg/mL; in data set [3] (22 h) it was 1.05 mg/mL. The Amount of entacapone in data set [3] (5 h) worked out at 0.05 mg/mL; in data set [3] (8 h), 0.06 mg/mL; in data set [3] (11 h), 0.10 mg/mL; in data set [3] (22 h) it was 0.17 mg/mL. For the same compound, the “plasma level of entacapone formed, compared with phosphate buffer formulation” value in data set [4] (Labrasol formulation) and in data set [4] (TPGS/PG formulation) was “more constant” each time.
For the compound `CCCCCCCCOC(=O)Oc1cc(/C=C(\C#N)C(=O)N(CC)CC)cc([N+](=O)[O-])c1O` [Compound 35, Carbonic acid 5-((E)-2-cyano-2-diethylcarbamoyl-vinyl)-2-hydroxy-3-nitro-phenyl ester octyl ester], the solubility at 10 min in data set [1] (setting [5]) was found to be 150 µg/mL (≈ 325 µM); in data set [1] (setting [6]), 150 µg/mL (≈ 325 µM); in data set [1] (setting [7]), 150 µg/mL (≈ 325 µM); in data set [1] (setting [8]) it was 150 µg/mL (≈ 325 µM); in data set [1] (setting [9]) it was 130 µg/mL (≈ 282 µM); in data set [1] (setting [10]), 130 µg/mL (≈ 282 µM). The compound further had an apparent permeability from apical to basolateral (Papp A→B) at 60 min in data set [2] above 42 ×10⁻⁶ cm/s. Further, in the data set “Plasma stability ex vivo”, the half-life at 5 μg/mL stood at 2 h. Moreover, the Amount of compound in data set [3] (setting [11]) was determined as 1.21 mg/mL; in data set [3] (8 h), 1.36 mg/mL; in data set [3] (11 h) it was 1.40 mg/mL; in data set [3] (22 h) it was 1.23 mg/mL. For the same compound, the Amount of entacapone in data set [3] (5 h) worked out at 0.03 mg/mL; in data set [3] (8 h), 0.05 mg/mL; in data set [3] (11 h) it was 0.07 mg/mL; in data set [3] (22 h) it was 0.08 mg/mL.
Turning to `CCCC(C)OC(=O)Oc1cc(/C=C(\C#N)C(=O)N(CC)CC)cc([N+](=O)[O-])c1O` (centres unmarked) [Compound 63, Carbonic acid 5-((E)-2-cyano-2-diethylcarbamoyl-vinyl)-2-hydroxy-3-nitro-phenyl ester 1-methyl-butyl ester], the solubility at 10 min in data set [1] (0.1 N HCl, pH 1, simulated gastric fluid, Table 11, maximum solubility, read-out: Solubility 0.1N HCl pH 1.0) is 20 µg/mL (≈ 47.7 µM); in data set [1] (0.1 N HCl, pH 1, simulated gastric fluid, ambient temperature, shaken 10 min, read-out: Solubility 0.1N HCl Ph 1.0), 20 µg/mL (≈ 47.7 µM); in data set [1] (setting [5]), 750 µg/mL (≈ 1790 µM); in data set [1] (setting [6]), 750 µg/mL (≈ 1790 µM); in data set [1] (setting [7]), 170 µg/mL (≈ 405 µM); in data set [1] (setting [8]), 170 µg/mL (≈ 405 µM). In addition, the solubility at 10 min in data set [1] (setting [9]) and in data set [1] (setting [10]) was 1230 µg/mL (≈ 2930 µM) throughout. Moreover, the Amount of compound in data set [3] (setting [11]) was 1.25 mg/mL; in data set [3] (8 h), 1.12 mg/mL; in data set [3] (11 h), 1.16 mg/mL; in data set [3] (22 h), 1.08 mg/mL. In addition, the Amount of entacapone in data set [3] (5 h) turned out to be 0.02 mg/mL; in data set [3] (8 h), 0.02 mg/mL; in data set [3] (11 h), 0.02 mg/mL; in data set [3] (22 h), 0.03 mg/mL.

(Values after patent publication US20080103191A1, “ENTACAPONE-DERIVATIVES” (priority 2006, published 2008).)
